One may read the EC50 as the concentration giving half of the maximal effect.

The experiment concerns the target T1, hGPR120 (Homo sapiens, UniProt Q5NUL3).
T1 construct: expressed in transfected cells; host or cells: CHO-K1
T1 sequence (Q5NUL3 1-361): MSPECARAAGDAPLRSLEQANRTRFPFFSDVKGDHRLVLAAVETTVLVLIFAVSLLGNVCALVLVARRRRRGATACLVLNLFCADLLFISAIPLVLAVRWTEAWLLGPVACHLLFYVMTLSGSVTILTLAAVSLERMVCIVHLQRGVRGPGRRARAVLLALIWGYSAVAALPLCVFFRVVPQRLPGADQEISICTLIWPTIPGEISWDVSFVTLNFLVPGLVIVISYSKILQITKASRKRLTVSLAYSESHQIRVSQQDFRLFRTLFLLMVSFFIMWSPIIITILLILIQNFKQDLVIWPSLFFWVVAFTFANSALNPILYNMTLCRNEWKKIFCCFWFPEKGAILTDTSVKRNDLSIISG
Description: Measurement of activity of GPR120 agonist (cell-based calcium fluorescence assay). To be noted: CHO-K1 cells expressing Ga16 and hGPR120, Calcium 5 dye fluorescence; activity class; read-out: EC50. The essentials: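 CHO-K1 cells co-expressing Gα16 and hGPR120, plated 18 h, loaded with Calcium 5 dye for 1 h at 37 °C, then given serially diluted agonists (final 0.5% DMSO). Fluorescence increase expressed as relative % of the 1% DMSO-only signal.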
Consider `CCCSc1ncccc1-c1cc(F)c(SCCCCC(=O)O)c(F)c1` [Example 257, 5-[2,6-difluoro-4-(2-propylsulfanyl-pyridin-3-yl)-phenylsulfanyl]-pentanoic acid], for which the EC50 is less than 200 nM.

For the compound `O=C(O)CCCCSc1ccc(-c2cccnc2SC2CCCC2)cc1` [Example 258, 5-[4-(2-cyclopentylsulfanyl-pyridin-3-yl)-phenylsulfanyl]-pentanoic acid], the EC50 was less than 200 nM.

`O=C(O)CCCCSc1ccc(-c2cccnc2SC2CCC2)cc1` [Example 259, 5-[4-(2-cyclobutylsulfanyl-pyridin-3-yl)-phenylsulfanyl]-pentanoic acid]: the EC50 was less than 200 nM.

In the case of `O=C(O)CCCCSc1c(F)cc(-c2cccnc2OCC2CCC2)cc1F` [Example 260, 5-[4-(2-cyclobutylmethoxy-pyridin-3-yl)-2,6-difluoro-phenylsulfanyl]-pentanoic acid], the EC50 is less than 200 nM.

In the case of `O=C(O)CCCCSc1c(F)cc(-c2cccnc2OC2CCC2)cc1F` [Example 261, 5-[4-(2-cyclobutoxy-pyridin-3-yl)-2,6-difluoro-phenylsulfanyl]-pentanoic acid], the EC50 was less than 200 nM.

For the compound `O=C(O)CCCCCOc1c(F)cc(-c2cccnc2OC2CCCC2)cc1F` [Example 262, 6-[4-(2-cyclopentyloxy-pyridin-3-yl)-2,6-difluoro-phenoxy]-hexanoic acid], the EC50 was less than 200 nM.

Turning to `O=C(O)CCCCCCOc1c(F)cc(-c2cccnc2OC2CCCC2)cc1F` [Example 263, 7-[4-(2-cyclopentyloxy-pyridin-3-yl)-2,6-difluoro-phenoxy]-heptanoic acid], the EC50 was 2000 to 20000 nM.

As for `CC(C)Oc1ncccc1-c1ccc(OCCCCC(=O)O)c(F)c1` [Example 264, 5-[2-fluoro-4-(2-isopropoxy-pyridin-3-yl)-phenoxy]-pentanoic acid], the EC50 lay within 200 to 2000 nM.

With `O=C(O)CCCCOc1ccc(-c2cccnc2SC2CCCC2)cc1F` [Example 265, 5-[4-(2-cyclopentylsulfanyl-pyridin-3-yl)-2-fluoro-phenoxy]-pentanoic acid], the EC50 was less than 200 nM.

As for `O=C(O)CCCCOc1ccc(-c2cccnc2SC2CCC2)cc1F` [Example 266, 5-[4-(2-cyclobutylsulfanyl-pyridin-3-yl)-2-fluoro-phenoxy]-pentanoic acid], the EC50 was less than 200 nM.

Turning to `O=C(O)CCCCOc1ccc(-c2cccnc2OC2CCCC2)cc1F` [Example 267, 5-[4-(2-cyclopentyloxy-pyridin-3-yl)-2-fluoro-phenoxy]-pentanoic acid], the 50% effective concentration (EC50) was less than 200 nM.

On to `COc1ncccc1-c1cc(F)c(OCCCC(=O)O)c(F)c1` [Example 268, 4-[2,6-difluoro-4-(2-methoxy-pyridin-3-yl)-phenoxy]-butyric acid], for which the EC50 is 200 to 2000 nM.

For the compound `C=CCOc1ncccc1-c1cc(F)c(OCCCC(=O)O)c(F)c1` [Example 269, 4-[4-(2-allyloxy-pyridin-3-yl)-2,6-difluoro-phenoxy]-butyric acid], the half-maximal effective concentration (EC50) fell in the range of 200 to 2000 nM.

For `CC#CCOc1ncccc1-c1cc(F)c(OCCCC(=O)O)c(F)c1` [Example 270, 4-[4-(2-but-2-ynyloxy-pyridin-3-yl)-2,6-difluoro-phenoxy]-butyric acid], the EC50 lay in the range of 2000 to 20000 nM.

Take `O=C(O)CCCCCOc1c(F)cc(-c2cccnc2OC2CCC2)cc1F` [Example 271, 6-[4-[2-(cyclobutoxy)-3-pyridyl]-2,6-difluoro-phenoxy]hexanoic acid]: the half-maximal effective concentration (EC50) lay in the range of 200 to 2000 nM.

On to `O=C(O)CCCCCOc1c(F)cc(-c2cccnc2OCC2CCC2)cc1F` [Example 272, 6-[4-[2-(cyclobutylmethoxy)-3-pyridyl]-2,6-difluoro-phenoxy]hexanoic acid], for which the EC50 was less than 200 nM.

`O=C(O)CCCCCOc1c(F)cc(-c2cccnc2OCC2CC2)cc1F` [Example 273, 6-[4-[2-(cyclopropylmethoxy)-3-pyridyl]-2,6-difluoro-phenoxy]hexanoic acid]: the 50% effective concentration (EC50) lay in the range of 200 to 2000 nM.

Consider `O=C(O)CCCCCOc1c(F)cc(-c2cccnc2SC2CCC2)cc1F` [Example 274, 6-[4-(2-cyclobutylsulfanyl-3-pyridyl)-2,6-difluoro-phenoxy]hexanoic acid], for which the EC50 is less than 200 nM.

Turning to `O=C(O)CCCCCOc1c(F)cc(-c2cccnc2SC2CCCC2)cc1F` [Example 275, 6-[4-(2-cyclopentylsulfanyl-3-pyridyl)-2,6-difluoro-phenoxy]hexanoic acid], the EC50 lay within 200 to 2000 nM.

Take `O=C(O)CCCCCSc1c(F)cc(-c2cccnc2OC2CCCC2)cc1F` [Example 276, 6-[4-(2-cyclopentyloxy-pyridin-3-yl)-2,6-difluoro-phenylsulfanyl]-hexanoic acid]: the EC50 lay in the range of 200 to 2000 nM.

On to `O=C(O)CCCCCSc1c(F)cc(-c2cccnc2SC2CCCC2)cc1F` [Example 277, 6-[4-(2-cyclopentylsulfanyl-pyridin-3-yl)-2,6-difluoro-phenylsulfanyl]-hexanoic acid], for which the concentration giving a half-maximal response (EC50) was 200 to 2000 nM.

For the compound `O=C(O)CCCCCSc1c(F)cc(-c2cccnc2SC2CCC2)cc1F` [Example 278, 6-[4-(2-cyclobutylsulfanyl-pyridin-3-yl)-2,6-difluoro-phenylsulfanyl]-hexanoic acid], the EC50 was 200 to 2000 nM.

Turning to `CCCSc1ncccc1-c1cc(F)c(SCCCCCC(=O)O)c(F)c1` [Example 279, 6-[2,6-difluoro-4-(2-propylsulfanyl-pyridin-3-yl)-phenylsulfanyl]-hexanoic acid], the 50% effective concentration (EC50) fell in the range of 200 to 2000 nM.
